Source: patent US12377166B2, “Iron oxide nanoparticle for targeted chemo-immunotherapy” (University of Washington, priority 2021, dated 2025)

Experiments:
4T1 cells [1] = assay: Cell uptake assay by flow cytometry; assay type: cell-based, murine; settings: 2 h
Method: Cell uptake assay by flow cytometry. 4T1 cells were incubated with different agents for 2 h (10 μg/mL DOX or DOX equivalent NPs) at either 37° C. or 4° C., followed by washing with cold PBS for 3 times. Cells were then trypsinized and resuspended in cold PBS and analyzed by flow cytometry (FACSCanto II, BD Biosciences). Each condition was triplicated.

4T1 cells [2] = assay: Alamar Blue cell viability assay; assay type: cell-based, murine; settings: 72 h incubation
Method: Alamar Blue cell viability assay. Cells were seeded in a 96-well plate and incubated overnight. The following day, the medium was replaced with medium containing various agents. The cells were then incubated for 72 h. Cell viability was assessed using the Alamar Blue assay. Briefly, the medium was replaced with cell culture medium containing the reagent and allowed to incubate for 2 h. Following the incubation, a microplate reader (SpectraMax i3 multimode microplate reader, Molecular Devices) was used to determine the fluorescence intensity of the dye (550ex/590em). The fluorescence intensity from NP or free drug treated cells was compared to those from untreated control cells to determine percent viability. Each condition was triplicated.

[3] = system: bone marrow-derived dendritic cells (BMDCs); assay: Confocal imaging of cellular uptake into BMDCs; assay type: cell-based, BALB/c mice; settings: 10 μg/mL Poly IC equivalent, 1 h, 37 °C
Method: BMDCs preparation. BMDC were generated from female BALB/c mice of 6-8 weeks old. The isolation of bone marrow cells was carried out following the method described in Madaan, A., et al., Journal of Biological Methods (2014) 1 (1). Cells were resuspended in RPMI-1640 supplemented with 10% FBS, 20 ng/mL recombinant murine GM-CSF (Shenandoah Biotechnology, Inc, Warwick, PA), and antibiotics (Pen Strep). Cells were allowed to differentiate for 7 d with one addition of fresh media at day 3. At day 7, cells were aspirated and counted for assays. Medium containing 10 ng/mL GM-CSF was used in assays.
Confocal microscopic imaging of cellular uptake. Cells were seeded onto a chamber slide (Nunc™ Lab-Tek™ II Chamber Slide™ System, Thermo Fisher Scientific Rockford, IL) with a density of 50,000 per well and incubated overnight. DOX, IONP-DOX-EBP-Cy5, or IONP-DOX-Poly IC-EBP-Cy5 was added into cells at a concentration of 10 μg/mL Poly IC-equivalency and incubated for 1 h. Cells were then washed and imaged with a Leica SP8X confocal laser scanning microscope.

IL-12 [4] = assay: Serum/plasma IL-12 after I.V. injection (ELISA); assay type: in vivo, mice; settings: for change of plasma IL-12 level: I.V., DOX 5 mg/kg, Poly IC 18 mg/kg, or NP (DOX 10 mg/kg, Poly IC 18 mg/kg)
Method: Six-week-old mice were administered with IONP-DOX-Poly IC-EBP-Cy5 through I.V. injection (dosage: 10 mg/kg DOX or equivalent). At 1, 2, 4, 8, 24 and 72 h post-injection, blood (5-25 μL) was collected from tail vein. The total amount of blood withdrawn from each mouse never exceeded one percent of the total body weight of the animal during the experiment. Whole blood was diluted with PBS and spun using a benchtop centrifuge for 2 min at 5000 g to separate the plasma. The diluted plasma was added to a 96-well black plate. The plate was scanned on a SpectraMax i3 plate reader (fluorescence mode) to measure Cy5 (ex, 646 nm; em, 676 nm) and DOX (ex, 500 nm; em, 600 nm) fluorescence signals. Three mice were used for each group.
The same conditions in pharmacokinetics study were used here except that blood was collected before agent administration and 2, 6.5 and 24 h after administration. IL-12 in plasma was assessed using an ELISA kit following the manufacturer's instruction and quantified with a SpectraMax i3 plate reader.

[5] = system: 4T1-luc tumors and organs; assay: DOX uptake in organs and tumors by confocal imaging; assay type: in vivo, BALB/c mice; settings: 10 mg/kg DOX, single I.V., 48 h post-injection
Method: (§1) One week after inoculated with 4T1-luc cells, mice were injected with various agents intravenously. Forty-eight hours later, mice were euthanized and organs (heart, kidney, liver, lung, and spleen) and tumors were harvested and pre-served in 10% formalin for 48 h. Formalin-fixed tissue samples were first transferred from PBS to 70% ethanol and maintained for 2 hours, and then were transferred into 95% ethanol/5% methanol and maintained for an additional 2 hours. The samples were transferred in absolute ethanol and maintained for 1 hour, and then transferred again into 3 consecutive absolute xylene solutions and maintained in each for 1 hour. The samples were dehydrated and then placed in 2 consecutive melted paraffin baths and maintained in each for 2 hours. The tissue samples were then embedded in paraffin blocks and sectioned at 10 um thickness and loaded onto microscope slides. The loaded slides were heated to remove excess paraffin and adhere the samples to the slides. The samples were then deparaffinized by a series of xylene, ethanol and PBS baths.
The deparaffinized tissue samples were stained with DAPI and WGA-AF647 and mounted with Prolong Gold mounting medium. Samples were imaged with a Leica SP8X confocal microscope.

[6] = H&E histopathology of organs; assay type: in vivo, BALB/c mice; settings: 10 mg/kg DOX equivalent, single I.V., 48 h
Method: as §1
The deparaffinized samples were stained with haemotoxylin and eosin, and mounted with Prolong Gold mounting medium. Microscopic images of tissues were acquired using a Nikon ECLIPSE TE 2000-S microscope.

4T1-luc flank tumor = assay: Tumor growth inhibition in 4T1-luc flank tumor model; assay type: in vivo; settings: for inhibition to tumor growth as compared to PBS-treated mice: three I.V. doses days 7, 10, 13, free DOX 5 mg/kg, NP DOX 10 mg/kg, Poly IC 18 mg/kg
Method: 6-Week-old female BALB/c mice were used. 4T1-luc cells were transfected to stably express luciferase so that bioluminescence imaging could be used to monitor tumor growth. 4T1-luc cells were trypsinized and suspended in PBS (10^7 cells/mL) and injected subcutaneously into the right flanks of mice (0.1 mL per mouse). Seven days after tumor inoculation, twenty-eight mice were randomly divided into 7 groups and each group was administered through intravenous injection with three doses of one of the following agents: PBS, IONPs, DOX, Poly IC, IONP-DOX-EBP, IONP-DOX-Poly IC, and IONP-DOX-Poly IC-EBP. […] For all NP agents, doses of DOX and Poly IC were 10 mg/kg and 18 mg/kg, respectively. Each mouse received an injection at day 7, 10 and 13 after tumor inoculation. The tumor size was measured by a caliper and the tumor volume was calculated by equation: V=width^2×length/2. The tumor size was measured every 3 days starting at day 4 after tumor cell inoculation. The body weight was also monitored after first agent administration.

4T1-luc orthotopic tumor = assay: Tumor growth, survival and metastasis in 4T1-luc primary (orthotopic) tumor model; assay type: in vivo, BALB/c mice
Method: 6-Week-old female BALB/c mice were used in this study. 4T1-luc cells were injected subcutaneously into the #9 mammary glands (10^6 cells in 0.05 mL PBS per mouse). Seven days after tumor inoculation, eighteen mice were randomly divided into 3 groups and each group was administered through intravenous injection with five doses of one of the following agents: PBS, DOX, and IONP-DOX-Poly IC-EBP. For free DOX, dose was 5 mg/kg per injection. For IONP-DOX-Poly IC-EBP, doses of DOX and Poly IC were 10 mg/kg and 18 mg/kg, respectively. Each mouse received an injection at day 7, 10, 13, 16 and 19 after tumor inoculation. The tumor size and body weight were monitored after first administration. Metastasis was monitored by IVIS imaging starting at day 22 after tumor inoculation. Mice were imaged at day 22, 25, 28, 31, 34, 37, 41, 45 and 50. Mice were euthanized following the approved animal protocol.

IL-12 [7] = assay: IL-12 production by BMDCs (ELISA); assay type: cell-based, BALB/c mice; settings: 10 μg/mL Poly IC equivalent, 24 h
Method: IL-12 production by ELISA assay. All conditions used were same as those for viability assay. Twenty-four hours after addition of agents into cell medium, supernatants were collected and IL-12 levels in medium were assessed by an ELISA assay kit following the manufacturer's protocol. Each condition was triplicated.

[8] = system: T cells (CD8, CD25, CD69); assay: Antigen-specific T cell response by flow cytometry in 4T1 tumor-bearing mice; assay type: in vivo, BALB/c mice; settings: three days after treatment
Method: Twelve 6-week-old female BALB/c mice were used. 4T1 cells (10^5 cells per mouse) were inoculated subcutaneously into #9 mammary glands. The tumors were allowed to grow into palpable masses. Ten days after tumor inoculation, the 12 mice were separated into 4 treatment groups. Four treatments, including IONP-DOX-EBP-Poly IC (10 mg/kg DOX and Poly IC), IONP-DOX-EBP (10 mg/kg DOX), free Poly IC (10 mg/kg Poly IC) and PBS, were administered intravenously into four groups of mice bearing tumors (200 μL per mouse), respectively. Three days after administration, mice were euthanized, and tumors and spleens were harvested.
Harvested tumors and spleens were then sectioned, squeezed through 70 μm cell strainers and washed with PBS w/1% v/v ratio of FBS to obtain single cell suspensions. Cells were spun down with a centrifuge at 1500 rpm for 4 min and resuspended in 750 μL PBS w/1% v/v FBS. Anti-CD8-PE, anti-CD25-APC, and anti-CD69-FITC (Biolegend Inc.) solutions (3 μL each) were then mixed with 241 μL of PBS w/1% v/v FBS (total antibody solution volume for each single cell suspension was 250 μL). The cell/antibody suspension was then incubated in dark at room temperature for 30 mins. After incubation, 11 mL of PBS w/1% v/v FBS was added to all cell/antibody suspensions followed by centrifuging at 1500 rpm for 4 mins. Finally, all cell pellets were resuspended in 500 μL PBS w/1% v/v FBS and analyzed by flow cytometry (FACSCanto II).

Row | Molecule | mean fluorescence intensity (MFI) of DOX, cellular uptake (4T1 cells [1]; 10 μg/mL DOX equivalent) | DOX taken up by cells at 4° C. (4T1 cells [1]; 4 °C vs 37 °C) | IC50 (cell viability) (4T1 cells [2]; DOX concentration) | uptake and localisation of DOX in BMDCs [3] | change of plasma IL-12 level (IL-12 [4]) | DOX signal in liver [5] | DOX signal in tumors [5] | heart damage (H&E) [6] | pathological changes in organs other than heart (H&E) [6] | time to mouse death from severe toxicity (4T1-luc flank tumor; free DOX 10 mg/kg I.V.) | inhibition to tumor growth as compared to PBS-treated mice (4T1-luc flank tumor) | median survival time (4T1-luc orthotopic tumor; five I.V. injections 3 days apart, free DOX 5 mg/kg, NP DOX 10 mg/kg, Poly IC 18 mg/kg) | metastasis delayed to day after tumor inoculation (4T1-luc orthotopic tumor; five I.V. injections, IVIS bioluminescence) | toxicity to cells (viability) (4T1 cells [2]) | production of IL-12 in cellular supernatants (IL-12 [7]) | time of peak IL-12 level post injection (IL-12 [4]; I.V. injection) | CD8 cells in tumor [8] | CD25 cells in tumor [8] | CD69 cells in tumor [8]
1 | COc1cccc2c1C(=O)c1c(O)c3c(c(O)c1C2=O)C[C@@](O)(C(=O)CO)C[C@@H]3O[C@H]1C[C@H](N)[C@H](O)[C@H](C)O1 [DOX, doxorubicin] | 451 | 10% | about 0.36 μg/mL | can enter BMDCs | did not increase the IL-12 level | strong and evenly distributed fluorescence signal | No observable DOX signal | severe heart damage | No pathological changes | less than 2 weeks | small | 32.5 days | 31 days | – | – | – | – | – | –
2 | polyinosinic:polycytidylic acid [Poly IC] | – | – | – | – | rapid elevation of the IL-12 level | – | – | – | – | – | small | – | – | non-toxic to cells | equivalent production of IL 12 | 1.5 h | 8.63% | 7.91% | 3.57%
